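Five concentrations, 48 hours, 96-well plates. GI50 = concentration required for 50% inhibition of growth. TGI is the concentration that stops growth completely.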 Where only a bound is given, the exact number is not on record here.

As usually defined, the GI50 is the concentration giving 50% growth inhibition. What is called TGI is the concentration giving total growth inhibition. Read a high TGI as less potent growth arrest.

For one experiment, the system named is NCI/ADR-RES ovarian. Nature of the experiment: DTP human tumour cell line panel, 48 h.
Take `OCc1ccc(N2CCCC2c2ccccc2)cc1Cl` (stereo not given): the GI50 was 3.54 µM and the TGI is 17.7 µM.

In the case of `COC1C=COC2(C)Oc3c(C)c(O)c4c(c3C2=O)/C(=N/C2CCC(O)OC2C)C=C(NC(=O)/C(C)=C\C(=O)C2CC2C(O)C(C)C(O)C(C)C(OC(C)=O)C1C)C4=O` (stereo not given), the TGI stood at 50.4 µM.

On to `CC(=O)/C=C/c1cn(C(=O)OC(C)(C)C)c2ccc(Br)cc12`, for which the GI50 is 17.9 µM and the TGI is 45.4 µM.

Regarding `CCOc1ccccc1C(=O)N1CCN(c2cc(Cl)cc(Cl)c2)CC1`, the GI50 was 0.0231 µM and the TGI was determined as 5.64 µM.

The molecule `COc1cc2c(cc1C1COc3cc4occc4cc3C1=O)OCO2` (stereo not given) displayed a TGI greater than 100 µM.

Consider `Cc1cc(S(=O)(=O)/N=C(/N)Nc2ccccc2O)c(SCc2ccccc2)cc1Cl`, for which the GI50 is 16.7 µM and the TGI turned out to be 36.6 µM.

As to `O=C1CCC(N2Cc3cc(CNC(=O)C(F)(F)c4ccc(Cl)cc4)ccc3C2=O)C(=O)N1` (stereo not given), the GI50 is 29.2 µM and the TGI is greater than 100 µM.

With `O=C(O)CN1CCN(CC(=O)O)CC(=O)[O][Hg][O]C(=O)C1`, the GI50 is 30.5 µM and the TGI is greater than 81.3 µM.

Consider `O=C1/C(=C/c2ccccc2[N+](=O)[O-])Cc2ccccc21`, for which the GI50 is 3.35 µM and the concentration for total growth inhibition (TGI) worked out at 40.6 µM.

In the case of `O=C(OCc1ccc2ccccc2n1)c1cn(C2CC2)c2cc(N3CCN(Cc4ccc5ccccc5n4)CC3)c(F)cc2c1=O`, the GI50 is 61.5 µM and the TGI is greater than 100 µM.

As for `O=C(O)c1ccc(C(=O)c2ccccc2)c(C(=O)O)c1`, the TGI was greater than 100 µM.

`Cc1ccc(/C=N\NC(=O)c2[nH]c3ccc(F)cc3c2-c2ccccc2)cc1`: the GI50 was 0.0238 µM and the TGI was 1.91 µM.

The next experiment relates to 786-0 renal. Nature of the experiment: DTP human tumour cell line panel, 48 h.
Consider `OCc1ccc(N2CCCC2c2ccccc2)cc1Cl` (stereo not given), for which the GI50 was 11.5 µM and the TGI came out at 28.4 µM.

The molecule `COC1C=COC2(C)Oc3c(C)c(O)c4c(c3C2=O)/C(=N/C2CCC(O)OC2C)C=C(NC(=O)/C(C)=C\C(=O)C2CC2C(O)C(C)C(O)C(C)C(OC(C)=O)C1C)C4=O` (stereo not given) showed a TGI of 3.13 µM. This lies in the single-digit micromolar range.

On to `CC(=O)/C=C/c1cn(C(=O)OC(C)(C)C)c2ccc(Br)cc12`, for which the GI50 was 11.8 µM and the concentration for total growth inhibition (TGI) was 25.3 µM.

As for `CCOc1ccccc1C(=O)N1CCN(c2cc(Cl)cc(Cl)c2)CC1`, the GI50 was 0.0624 µM and the TGI came out at 14.8 µM.

In turn, `COc1cc2c(cc1C1COc3cc4occc4cc3C1=O)OCO2` (stereo not given) displayed a TGI greater than 100 µM.

As to `Cc1cc(S(=O)(=O)/N=C(/N)Nc2ccccc2O)c(SCc2ccccc2)cc1Cl`, the GI50 is 18.6 µM and the TGI came out at 35 µM.

Take `O=C1CCC(N2Cc3cc(CNC(=O)C(F)(F)c4ccc(Cl)cc4)ccc3C2=O)C(=O)N1` (stereo not given): the GI50 is greater than 100 µM and the TGI was greater than 100 µM.

As for `O=C(O)CN1CCN(CC(=O)O)CC(=O)[O][Hg][O]C(=O)C1`, the GI50 is 17.1 µM and the TGI stood at 32.2 µM.

Take `O=C1/C(=C/c2ccccc2[N+](=O)[O-])Cc2ccccc21`: the GI50 is 2.57 µM and the TGI came to 6.9 µM.

On to `O=C(OCc1ccc2ccccc2n1)c1cn(C2CC2)c2cc(N3CCN(Cc4ccc5ccccc5n4)CC3)c(F)cc2c1=O`, for which the GI50 was greater than 49.2 µM and the TGI is greater than 68.4 µM.

The molecule `O=C(O)c1ccc(C(=O)c2ccccc2)c(C(=O)O)c1` came in with a TGI greater than 100 µM.

Regarding `Cc1ccc(/C=N\NC(=O)c2[nH]c3ccc(F)cc3c2-c2ccccc2)cc1`, the GI50 was 0.0387 µM and the TGI is 23.2 µM.

A further experiment relates to NCI-H23 lung. Description: DTP human tumour cell line panel, 48 h.
For the molecule `OCc1ccc(N2CCCC2c2ccccc2)cc1Cl` (stereo not given), the GI50 is 5.51 µM and the TGI is 30 µM.

In the case of `COC1C=COC2(C)Oc3c(C)c(O)c4c(c3C2=O)/C(=N/C2CCC(O)OC2C)C=C(NC(=O)/C(C)=C\C(=O)C2CC2C(O)C(C)C(O)C(C)C(OC(C)=O)C1C)C4=O` (stereo not given), the concentration for total growth inhibition (TGI) stood at 3.62 µM.

As to `CC(=O)/C=C/c1cn(C(=O)OC(C)(C)C)c2ccc(Br)cc12`, the GI50 was 19.8 µM and the TGI came to 42 µM.

For the molecule `CCOc1ccccc1C(=O)N1CCN(c2cc(Cl)cc(Cl)c2)CC1`, the GI50 was 0.0491 µM and the TGI came out at 9.46 µM.

As for `COc1cc2c(cc1C1COc3cc4occc4cc3C1=O)OCO2` (stereo not given), the TGI was greater than 100 µM.

For the molecule `Cc1cc(S(=O)(=O)/N=C(/N)Nc2ccccc2O)c(SCc2ccccc2)cc1Cl`, the GI50 was 17.1 µM and the TGI stood at 34.4 µM.

Regarding `O=C1CCC(N2Cc3cc(CNC(=O)C(F)(F)c4ccc(Cl)cc4)ccc3C2=O)C(=O)N1` (stereo not given), the GI50 was greater than 100 µM and the TGI is greater than 100 µM.

Take `O=C(O)CN1CCN(CC(=O)O)CC(=O)[O][Hg][O]C(=O)C1`: the GI50 is 21.2 µM and the TGI stood at 47.2 µM.

As for `O=C1/C(=C/c2ccccc2[N+](=O)[O-])Cc2ccccc21`, the GI50 was 2.2 µM and the TGI amounted to 7 µM.

As for `O=C(OCc1ccc2ccccc2n1)c1cn(C2CC2)c2cc(N3CCN(Cc4ccc5ccccc5n4)CC3)c(F)cc2c1=O`, the GI50 is 42.3 µM and the TGI is greater than 88.6 µM.

In turn, `O=C(O)c1ccc(C(=O)c2ccccc2)c(C(=O)O)c1` displayed a TGI greater than 100 µM.

With `Cc1ccc(/C=N\NC(=O)c2[nH]c3ccc(F)cc3c2-c2ccccc2)cc1`, the GI50 is 0.0374 µM and the TGI was greater than 43.8 µM.

The next experiment relates to U251 CNS. Description: DTP human tumour cell line panel, 48 h.
With `OCc1ccc(N2CCCC2c2ccccc2)cc1Cl` (stereo not given), the GI50 was 2.35 µM and the TGI was found to be 13.3 µM.

Molecule `COC1C=COC2(C)Oc3c(C)c(O)c4c(c3C2=O)/C(=N/C2CCC(O)OC2C)C=C(NC(=O)/C(C)=C\C(=O)C2CC2C(O)C(C)C(O)C(C)C(OC(C)=O)C1C)C4=O` (stereo not given) gave a TGI of 8.3 µM. That is a single-digit micromolar value.

`CC(=O)/C=C/c1cn(C(=O)OC(C)(C)C)c2ccc(Br)cc12`: the GI50 is 12.5 µM and the TGI was 25.5 µM.

For `CCOc1ccccc1C(=O)N1CCN(c2cc(Cl)cc(Cl)c2)CC1`, the GI50 was 0.0407 µM and the TGI was found to be 14.3 µM.

`COc1cc2c(cc1C1COc3cc4occc4cc3C1=O)OCO2` (stereo not given) had a TGI greater than 100 µM.

`Cc1cc(S(=O)(=O)/N=C(/N)Nc2ccccc2O)c(SCc2ccccc2)cc1Cl`: the GI50 is 14.9 µM and the TGI turned out to be 30.5 µM.

`O=C1CCC(N2Cc3cc(CNC(=O)C(F)(F)c4ccc(Cl)cc4)ccc3C2=O)C(=O)N1` (stereo not given): the GI50 was greater than 100 µM and the TGI was greater than 100 µM.

With `O=C(O)CN1CCN(CC(=O)O)CC(=O)[O][Hg][O]C(=O)C1`, the GI50 is 12.2 µM and the TGI was 25.7 µM.

On to `O=C1/C(=C/c2ccccc2[N+](=O)[O-])Cc2ccccc21`, for which the GI50 was 2.89 µM and the TGI came out at 10.6 µM.

In the case of `O=C(OCc1ccc2ccccc2n1)c1cn(C2CC2)c2cc(N3CCN(Cc4ccc5ccccc5n4)CC3)c(F)cc2c1=O`, the GI50 was 56.7 µM and the TGI is greater than 100 µM.

For the molecule `O=C(O)c1ccc(C(=O)c2ccccc2)c(C(=O)O)c1`, the TGI was greater than 100 µM.

`Cc1ccc(/C=N\NC(=O)c2[nH]c3ccc(F)cc3c2-c2ccccc2)cc1`: the 50% growth inhibitory concentration (GI50) is 0.0378 µM and the TGI is greater than 58.9 µM.

The next experiment concerns HCT-116 colon. Nature of the experiment: DTP human tumour cell line panel, 48 h.
`OCc1ccc(N2CCCC2c2ccccc2)cc1Cl` (stereo not given): the GI50 was 0.744 µM and the TGI is 10.6 µM.

As for `COC1C=COC2(C)Oc3c(C)c(O)c4c(c3C2=O)/C(=N/C2CCC(O)OC2C)C=C(NC(=O)/C(C)=C\C(=O)C2CC2C(O)C(C)C(O)C(C)C(OC(C)=O)C1C)C4=O` (stereo not given), the TGI came out at 3.56 µM.

Take `CC(=O)/C=C/c1cn(C(=O)OC(C)(C)C)c2ccc(Br)cc12`: the GI50 is 8.39 µM and the TGI stood at 21.6 µM.

As for `CCOc1ccccc1C(=O)N1CCN(c2cc(Cl)cc(Cl)c2)CC1`, the GI50 was 0.0325 µM and the TGI was determined as 4.02 µM.

The molecule `COc1cc2c(cc1C1COc3cc4occc4cc3C1=O)OCO2` (stereo not given) had a TGI greater than 100 µM.

For the molecule `Cc1cc(S(=O)(=O)/N=C(/N)Nc2ccccc2O)c(SCc2ccccc2)cc1Cl`, the GI50 is 15.1 µM and the TGI was 31.4 µM.

Consider `O=C1CCC(N2Cc3cc(CNC(=O)C(F)(F)c4ccc(Cl)cc4)ccc3C2=O)C(=O)N1` (stereo not given), for which the GI50 was greater than 100 µM and the TGI was greater than 100 µM.

Take `O=C(O)CN1CCN(CC(=O)O)CC(=O)[O][Hg][O]C(=O)C1`: the GI50 was 17.9 µM and the TGI was 33.7 µM.

For `O=C1/C(=C/c2ccccc2[N+](=O)[O-])Cc2ccccc21`, the GI50 was 1.23 µM and the TGI amounted to 2.57 µM.

Regarding `O=C(OCc1ccc2ccccc2n1)c1cn(C2CC2)c2cc(N3CCN(Cc4ccc5ccccc5n4)CC3)c(F)cc2c1=O`, the GI50 is greater than 53.2 µM and the TGI was greater than 95.3 µM.

On to `O=C(O)c1ccc(C(=O)c2ccccc2)c(C(=O)O)c1`, for which the TGI is greater than 100 µM.

Consider `Cc1ccc(/C=N\NC(=O)c2[nH]c3ccc(F)cc3c2-c2ccccc2)cc1`, for which the GI50 was 0.027 µM and the TGI came out at 0.855 µM.

Source of the values: PubChem BioAssay (NCI).
